Data reported in patent US5747462A, “Pharmaceutically active compounds and their use” (priority 1995, dated 1998).

Test: quantitative evaluation of intradermoplantar edema induced by lambda-carrageenan in guinea pigs (plethysmometer)
Conditions: for anti-inflammatory effect with respect to the carrageenan standard (S2): p<0.000, one way variance analysis and Tukey's multiple comparisons, at the experimental doses used
Procedure: This inoculation initiates an inflammatory process defined as the standard inflammatory constant of all the preclinical trials.
The comparative evaluation is performed by measuring with a plethysmometer the change in volume in milliliters of mercury and expressing the results in absolute volume (ml) and relative percentage (°/l or %) values versus the variable of time in hours (h).
The inflammatory response is induced by inoculating carrageenan into the animal's plantar pad, and the change in volume is measured with a plethysmometer in milliliters of mercury.
The technique employed is adapted to a biological model of guinea pigs, and evaluates the intensity of the edema as the increase or decrease in the proportion of relative inflamed volume. The equation which describes this variable is: postinoculation volume minus preinoculation control volume divided by preinoculation control volume.
The method of measurement is composed of three basic steps:
Measurement of the clinical parameter inflammation volume obtained on inoculating an inflammatory noxa. This procedure constitutes the inflammatory standard (inflammatory control).
Measurement of the change in the clinical parameter inflammation volume by applying to the inflammatory standard a drug recognized as anti-inflammatory reference substance (anti-inflammatory control).
Measurement of the change in the clinical parameter inflammation volume by applying to the inflammatory standard an anti-inflammatory composition and/or subcompositions (invention).
Standard (S2): 0.1 ml of the pharmaceutically acceptable injectable formulation containing 1% of lambda-carrageenan, prepared according to standard processes in sterile water for injections and administered via the intradermoplantar route. Single dose of carrageenan between 3.6 and 3.9 mg/kg animal body weight.
Reference substance (P1): 2.0 ml of the pharmaceutically acceptable injectable formulation containing 6.25% of acetylsalicylic acid (ASA), prepared according to standard processes in sterile water for injections and administered intraperitoneally. Single dose of ASA, between 418.1 and 490.2 mg/kg animal body weight.

SMILES: CC(=O)Oc1ccccc1C(=O)O [ASA (P1), acetylsalicylic acid]
- % Inflammation (0 h, ASA 418.1-490.2 mg/kg i.p. single dose): 00.000%
- % Inflammation (1 h, ASA 418.1-490.2 mg/kg i.p. single dose): 05.620%
- % Inflammation (2 h, ASA 418.1-490.2 mg/kg i.p. single dose): 13.700%
- % Inflammation (3 h, ASA 418.1-490.2 mg/kg i.p. single dose): 10.450%
- % Inflammation (4 h, ASA 418.1-490.2 mg/kg i.p. single dose): 12.020%
- % Inflammation (5 h, ASA 418.1-490.2 mg/kg i.p. single dose): 12.100%
- % Inflammation (6 h, ASA 418.1-490.2 mg/kg i.p. single dose): 10.450%
- % Inflammation (7 h, ASA 418.1-490.2 mg/kg i.p. single dose): 09.810%
- anti-inflammatory effect with respect to the carrageenan standard (S2): significant anti-inflammatory effect

SMILES: O=C(O)Cc1ccccc1Nc1c(Cl)cccc1Cl [DICLO (P2), diclofenac sodium]
- % Inflammation (0 h, diclofenac sodium 94.8-105.8 mg/kg i.p. single dose): 00.000%
- % Inflammation (1 h, diclofenac sodium 94.8-105.8 mg/kg i.p. single dose): 12.500%
- % Inflammation (2 h, diclofenac sodium 94.8-105.8 mg/kg i.p. single dose): 12.600%
- % Inflammation (5 h, diclofenac sodium 94.8-105.8 mg/kg i.p. single dose): 11.400%
- % Inflammation (6 h, diclofenac sodium 94.8-105.8 mg/kg i.p. single dose): 12.300%
- anti-inflammatory effect with respect to the carrageenan standard (S2): significant anti-inflammatory effect
